What was measured:
[1] = Stability data of Afatinib dimaleate crystalline Form H3 on storage (PXRD, impurity, water content); type: physicochemical; parameters: Impurity: unit not given here
[2] = as above; type: physicochemical
Procedure: X-ray powder diffraction spectrum was measured on a bruker axs D8 advance X-ray powder diffractometer having a copper-a radiation. Adequate sample was gently flattered on a sample holder and scanned from 2 to 50 degrees two-theta, at 0.02 increment and scan speed of 0.2 Sec/Step. The sample was simply placed on the sample holder. The sample was rotated at 30 rpm at a voltage 40 KV and current 35 mA.

[3] = 25 ± 2° C./RH 60 ± 5%, 1st Month
[4] = 25 ± 2° C./RH 60 ± 5%, 2nd Month
[5] = 25 ± 2° C./RH 60 ± 5%, 3rd Month

CN(C)C/C=C/C(=O)Nc1cc2c(Nc3ccc(F)c(Cl)c3)ncnc2cc1O[C@H]1CCOC1 [Afatinib dimaleate crystalline Form H3, 2-Butenamide, N-[4-[(3-Chloro-4-fluorophenyl)amino]-7-[[(3S)-tetrahydro-3-furanyl]oxy]-6-quinazolinyl]-4(dimethylamino),(2E)-]
Impurity ([1]; 5 ± 3° C., 1st Month): 0.22 | Water Content ([1]; 5 ± 3° C., 1st Month): 1.34% | Impurity ([1]; 5 ± 3° C., 2nd Month): 0.26 | PXRD ([1]; 5 ± 3° C., 2nd Month): Form H3 | Water Content ([1]; 5 ± 3° C., 2nd Month): 1.4% | Impurity ([1]; 5 ± 3° C., 3rd Month): 0.27 | Water Content ([1]; 5 ± 3° C., 3rd Month): 1.26% | Impurity ([1]; 5 ± 3° C., Initial): 0.22 | Water Content ([1]; 5 ± 3° C., Initial): 1% | Impurity [1, 3]: 0.22 | PXRD [1, 3]: Form H3 | Water Content [1, 3]: 1.18% | Impurity [1, 4]: 0.38 | Water Content [1, 4]: 1.35% | Impurity [1, 5]: 0.43 | PXRD [1, 5]: Form H3 | Water Content [1, 5]: 1.56% | Impurity ([1]; 25 ± 2° C./RH 60 ± 5%, Initial): 0.22 | PXRD ([1]; 25 ± 2° C./RH 60 ± 5%, Initial): Form H3 | Water Content ([1]; 25 ± 2° C./RH 60 ± 5%, Initial): 1% | stability ([1]; at 5±3° C. and 25±2° C./RH (Relative humidity) 60±5%): stable | PXRD ([2]; 5 ± 3° C., 1st Month): Form H3 | PXRD ([2]; 5 ± 3° C., 3rd Month): Form H3 | PXRD ([2]; 5 ± 3° C., Initial): Form H3 | PXRD [2, 4]: Form H3

Source: patent US10329281B2, “Polymorphs and process for the preparation of quinazolinyl derivatives” (HETERO LABS LTD, priority 2015, dated 2019)
